Experimental data published in PubChem BioAssay AID2060495 (Molecular Pharmacology Branch, DTP, NCI, 2025).
Where “and” joins values, the source holds several entries; their conditions need not be identical. Equal entries are not always repeated. Values belong to the molecule of their own block, whether it stands above or below them.

Test system: 521955-158-R2-J5-PDC complex spheroid viability
Assay: Anticancer human tumor 521955-158-R2-J5-PDC patient-derived pancreatic carcinoma cell line growth inhibition [GQUAD]
Settings: for viability, T/C: stronger effect = lower value
Description: DNA G-quadruplex Stabilizer Agents in Combinations in Complex Spheroids
A high-throughput screen of multi-cell type tumor spheroids was designed to identify active combinations of DNA G-quadruplex stabilizer agents and targeted small molecules. Complex spheroids include a stromal component modeled by human endothelial cells (HUVEC) and fibroblasts modeled by human mesenchymal stem cells (MSCs). The concentration ranges selected for each drug and investigational agent were based upon clinically achievable concentrations if the clinical Cmax of the agent was known.
Compounds. The drugs and investigational agents: pidnarulex (CX-5461; NSC782164), APTO-253 (NSC789042), BRACO-19 (NSC847499), peposertib (NSC802822), ceralasertib (NSC780249), elimusertib (NSC800525), camonsertib (NSC841442), AZD-1390 (NSC803789), olaparib (NSC753686), talazoparib (NSC767125), ART-558 (NSC835418), sotorasib (NSC818433), MRTX-1133 (NSC836407), SN-38 (NSC673596), topotecan (NSC609699), etoposide (NSC141540), doxorubicin (NSC123127), gemcitabine (NSC613327), 5-fluorouracil (NSC19893), paclitaxel (NSC125973), vemurafenib (NSC761431), panobinostat (NSC761190), R-306465 (JNJ-16241199; NSC773264), adavosertib (NSC754352), TP-3654 (NSC805149), carboplatin (NSC241240), KSQ-4279 (NSC840948), and staurosporine (NSC755774) were obtained from the National Cancer Institute (NCI) Developmental Therapeutics Program Chemical Repository (34). The FDA-approved anticancer drug set is available from the NCI Developmental Therapeutics Program. […] The stock solutions were prepared in dimethyl sulfoxide (DMSO, Sigma-Aldrich, St. Louis, MO, cat. D2650) at 800-fold the tested concentration and stored at -70 degrees C prior to their use. All drugs and investigational agents were tested over a range starting from a high concentration at or near the clinical Cmax and decreasing in half-log increments. If the clinical Cmax for an agent had not been determined, the highest concentration tested was 10 microM.
2.3 Cell Culture. All cells were maintained in an incubator at 37 degrees C and 5% CO2 with 95% humidity. The PDC lines were cultured according to standard operating procedures established by the NCI PDMR. All PDCs were thawed and cultured in Matrigel-coated flasks prepared with a working solution of 1X Ham's F-12 nutrient mix, without supplementation (Invitrogen, cat. 11765054), 100 U/mL penicillin-streptomycin (Invitrogen, cat. 15140122), and 2.5% Matrigel (Corning Inc., cat. 354248) for the first three passages. The 857933-349-R-J2-PDC line was cultured in 6C/Colon 1B media, which includes advanced DMEM/F-12 (Thermo Fisher Scientific, cat. 12634028), 10 mM HEPES (Thermo Fisher Scientific, cat. 15630080), 1X GlutaMAX supplement (Thermo Fisher Scientific, cat. 35050061), 0.1 mg/mL primocin (InvivoGen, cat. ant-pm-2), 10% defined fetal bovine serum, heat inactivated (HyClone Laboratories Inc., cat. SH30070.03HI), 50% L-WRN conditioned media (ATCC, cat. CRL-3276), 1.25 mM N-Acetyl-L-cysteine (Sigma-Aldrich, cat. A9165), 10 mM nicotinamide (Sigma-Aldrich, cat. N0636), 1X B-27 supplement (Thermo Fisher Scientific, cat. 17504044), 1X N-2 supplement (Thermo Fisher Scientific, cat. 17502048), 10 microM Y-27632 dihydrochloride (Tocris Bioscience, cat. 1254), and 50 ng/mL human EGF recombinant protein (Thermo Fisher Scientific, cat. PHG0311). The 485176-168-R4-J1-PDC line was cultured in Panc media, which includes all 6C/Colon 1B media components plus 100 ng/mL human FGF-10 (Thermo Fisher Scientific, cat. 100-26), 500 nM SB-431542 (Selleckchem, cat. S1067), and gastrin (Tocris, cat. 3006).
[…]

[1] = curve of first compound, second compound 0.0316 µM
[2] = curve of first compound, second compound 0.1 µM
[3] = curve of first compound, second compound 0.316 µM
[4] = curve of first compound, second compound 1 µM
[5] = curve of first compound, second compound 3.16 µM
[6] = curve of first compound, second compound 10 µM
[7] = second compound 0.0316 µM, first compound 0.0316 µM
[8] = second compound 0.0316 µM, first compound 0.1 µM
[9] = second compound 0.0316 µM, first compound 0.316 µM
[10] = second compound 0.0316 µM, first compound 1 µM
[11] = second compound 0.0316 µM, first compound 3.16 µM
[12] = second compound 0.0316 µM, first compound 10 µM
[13] = second compound 0.1 µM, first compound 0.0316 µM
[14] = second compound 0.1 µM, first compound 0.1 µM
[15] = second compound 0.1 µM, first compound 0.316 µM
[16] = second compound 0.1 µM, first compound 1 µM
[17] = second compound 0.1 µM, first compound 3.16 µM
[18] = second compound 0.1 µM, first compound 10 µM
[19] = second compound 0.316 µM, first compound 0.0316 µM
[20] = second compound 0.316 µM, first compound 0.1 µM
[21] = second compound 0.316 µM, first compound 0.316 µM
[22] = second compound 0.316 µM, first compound 1 µM
[23] = second compound 0.316 µM, first compound 3.16 µM
[24] = second compound 0.316 µM, first compound 10 µM
[25] = second compound 1 µM, first compound 0.0316 µM
[26] = second compound 1 µM, first compound 0.1 µM
[27] = second compound 1 µM, first compound 0.316 µM
[28] = second compound 1 µM, first compound 1 µM
[29] = second compound 1 µM, first compound 3.16 µM
[30] = second compound 1 µM, first compound 10 µM
[31] = second compound 3.16 µM, first compound 0.0316 µM
[32] = second compound 3.16 µM, first compound 0.1 µM
[33] = second compound 3.16 µM, first compound 0.316 µM
[34] = second compound 3.16 µM, first compound 1 µM
[35] = second compound 3.16 µM, first compound 3.16 µM
[36] = second compound 3.16 µM, first compound 10 µM
[37] = second compound 10 µM, first compound 0.0316 µM
[38] = second compound 10 µM, first compound 0.1 µM
[39] = second compound 10 µM, first compound 0.316 µM
[40] = second compound 10 µM, first compound 1 µM
[41] = second compound 10 µM, first compound 3.16 µM
[42] = second compound 10 µM, first compound 10 µM
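Also: spheroids exposed to agents for one week before reading.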
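For viability, T/C in this document: 100% = DMSO vehicle control viability.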

IC50 [1]: < 31.6 nM | IC50 [2]: < 31.6 nM | IC50 [3]: < 31.6 nM | IC50 [4]: < 31.6 nM | IC50 [5]: < 31.6 nM | IC50 [6]: < 31.6 nM
Compound: C#Cc1c(F)ccc2cc(O)cc(-c3ncc4c(N5CC6CCC(C5)N6)nc(OCC56CCCN5CC(F)C6)nc4c3F)c12 (stereo not drawn) + Cc1cnc(CNC(=O)c2c(=O)c3ccc(N4CCCN(C)CC4)nc3n3c2sc2ccccc23)cn1
viability, T/C [7]: 35.4% | viability, T/C [8]: 31.3% | viability, T/C [9]: 26.2% | viability, T/C [10]: 19.1% | viability, T/C [11]: 17.9% | viability, T/C [12]: 13.9% | viability, T/C [13]: 24.5% | viability, T/C [14]: 26.6% | viability, T/C [15]: 21.4% | viability, T/C [16]: 18.3% | viability, T/C [17]: 17.2% | viability, T/C [18]: 13.3% | viability, T/C [19]: 19.3% | viability, T/C [20]: 20% | viability, T/C [21]: 18.3% | viability, T/C [22]: 16.1% | viability, T/C [23]: 14.1% | viability, T/C [24]: 11.5% | viability, T/C [25]: 11.3% | viability, T/C [26]: 12.6% | viability, T/C [27]: 10.9% | viability, T/C [28]: 8.41% | viability, T/C [29]: 9.79% | viability, T/C [30]: 5.56% | viability, T/C [31]: 2.92% | viability, T/C [32]: 0.7% | viability, T/C [33]: 2.89% | viability, T/C [34]: 0.31% | viability, T/C [35]: 0.11% | viability, T/C [36]: 0.08% | viability, T/C [37]: 0.08% | viability, T/C [38]: 0.7% | viability, T/C [39]: 0.19% | viability, T/C [40]: 0.15% | viability, T/C [41]: 0.18% | viability, T/C [42]: 0.16%

IC50 (curve of compound): > 10000 nM
Compound: Cc1cccc(N(C)C(=O)C2C(O)CCN2c2nc(C)cc(C(F)(F)F)c2C#N)c1 (stereo not drawn)
viability, T/C (compound 0.0316 µM): 120% and 113% and 96.8% | viability, T/C (compound 0.1 µM): 86.4% and 98.3% and 105% | viability, T/C (compound 0.316 µM): 90% and 104% and 107% | viability, T/C (compound 1 µM): 98.8% and 98.2% and 100% | viability, T/C (compound 3.16 µM): 120% and 115% and 123% | viability, T/C (compound 10 µM): 118% and 110% and 140%

IC50 (curve of compound): > 316 nM
Compound: Cn1ncnc1[C@H]1c2n[nH]c(=O)c3cc(F)cc(c23)N[C@@H]1c1ccc(F)cc1
viability, T/C (compound 0.000999 µM): 94.9% and 94.7% and 84.8% | viability, T/C (compound 0.00316 µM): 81.5% and 95.2% and 80.6% | viability, T/C (compound 0.00999 µM): 92.4% and 99.2% and 79.1% | viability, T/C (compound 0.0316 µM): 78.9% and 94.1% and 78.3% | viability, T/C (compound 0.0999 µM): 86.8% and 89.5% and 85.8% | viability, T/C (compound 0.316 µM): 60.1% and 87.9% and 72.1%

Compound: Nc1ccn(C2OC(CO)C(O)C2(F)F)c(=O)n1 (stereo not drawn) + Cc1[nH]c2ccc(F)cc2c1-c1nc2c3cccnc3c3ncccc3c2[nH]1
IC50 [1]: 421 nM | IC50 [2]: 424 nM | IC50 [3]: 436 nM | IC50 [4]: 449 nM | IC50 [5]: 485 nM | IC50 [6]: 467 nM | viability, T/C [7]: 78.3% | viability, T/C [8]: 83.1% | viability, T/C [9]: 61.9% | viability, T/C [10]: 13.8% | viability, T/C [11]: 10.5% | viability, T/C [12]: 7.49% | viability, T/C [13]: 77.1% | viability, T/C [14]: 79.2% | viability, T/C [15]: 58.9% | viability, T/C [16]: 22.3% | viability, T/C [17]: 10.8% | viability, T/C [18]: 6.82% | viability, T/C [19]: 89% | viability, T/C [20]: 75.3% | viability, T/C [21]: 64.1% | viability, T/C [22]: 15% | viability, T/C [23]: 10.6% | viability, T/C [24]: 7.06% | viability, T/C [25]: 88.9% | viability, T/C [26]: 80.4% | viability, T/C [27]: 61.6% | viability, T/C [28]: 25.1% | viability, T/C [29]: 9.92% | viability, T/C [30]: 7.24% | viability, T/C [31]: 92.8% | viability, T/C [32]: 93.3% | viability, T/C [33]: 66.4% | viability, T/C [34]: 21.8% | viability, T/C [35]: 12.9% | viability, T/C [36]: 10.2% | viability, T/C [37]: 109% | viability, T/C [38]: 104% | viability, T/C [39]: 61.7% | viability, T/C [40]: 25.3% | viability, T/C [41]: 8.99% | viability, T/C [42]: 7.65%
